US8450318B2 (priority 2007, dated 2013)
In brackets after ≈: the same amount, converted by molar mass. Read-outs that look alike come from different tables or passages of the source.

Experiments:
[1] = system: Sindbis virus; assay: Antiviral activity, Sindbis virus; type: cell-based; conditions: Table 3, reference compounds
[2] = system: Punta Toro virus; assay: Antiviral activity, Punta Toro virus; type: cell-based; conditions: Table 3, reference compounds
[3] = system: Coxsackie virus B4; assay: microbe, parasite or virus in culture; type: cell-based; conditions: Table 3, reference compounds
[4] = system: Herpes simplex virus-1 (KOS); assay: Antiviral activity, Herpes simplex virus-1 (KOS); type: cell-based; conditions: Human alphaherpesvirus 1; Table 4, reference compounds
[5] = system: Reovirus-1; assay: Antiviral activity, Reovirus-1; type: cell-based; conditions: Table 3, reference compounds
[6] = system: Vaccinia virus; assay: microbe, parasite or virus in culture; type: cell-based; conditions: Orthopoxvirus vaccinia, read-out: EC50 Vaccinia virus
[7] = system: Herpes simples virus-2 (G); assay: Antiviral activity, Herpes simplex virus-2 (G); type: cell-based; conditions: Human alphaherpesvirus 2; Table 4, reference compounds
[8] = system: Herpes simplex virus-1 TK KOS-ACV^r; assay: Antiviral activity, Herpes simplex virus-1 TK KOS-ACVr; type: cell-based; conditions: Human alphaherpesvirus 1, read-out: EC50 Herpes simplex virus-1 TK KOS-ACV^r
[9] = system: Para-influenza-3 virus; assay: Antiviral activity, Para-influenza-3 virus; type: cell-based; conditions: Table 3, reference compounds
[10] = system: Vesicular stomatitis virus; assay: microbe, parasite or virus in culture; type: cell-based; conditions: read-out: EC50 Vesicular stomatitis virus
[11] = system: HIV-1; assay: microbe, parasite or virus in culture; conditions: Human immunodeficiency virus 1, CCRF-CEM, read-out: EC50 HIV-1
[12] = system: human corona (SARS) virus; assay: microbe, parasite or virus in culture; type: cell-based; conditions: Severe acute respiratory syndrome coronavirus, read-out: Human Corona virus EC50
[13] = system: HIV-2; assay: Antiretrovirus assay, HIV-2; conditions: Human immunodeficiency virus 2, read-out: EC50 HIV-2
[14] = in vitro; conditions: human, CEM cells
[15] = system: Feline Corona virus; assay: Activity on feline corona virus in CRFK cells; type: cell-based
[16] = system: Influenza A H1N1 subtype; assay: Anti-influenza activity in MDCK cells, Influenza A H1N1; type: cell-based; conditions: Influenza A virus, reference compounds
Source text: (§1) MDCK cells (Madin Darby canine kidney cells) have been used for the experiments shown in table 5 using standard procedures known in the art.

[17] = system: Influenza A H3N2 subtype; assay: Anti-influenza activity in MDCK cells, Influenza A H3N2; type: cell-based; conditions: Influenza A virus, reference compounds
Source text: as §1

Row | SMILES | EC50 [4] [µM] | EC50 ([1]; Sindbis virus) [µM] | EC50 [5] [µM] | EC50 [6] [µM] | EC50 ([2]; Punta Toro virus) [µM] | EC50 [7] [µM] | EC50 [8] [µM] | EC50 [9] [µM] | EC50 ([3]; Enterovirus B, B4) [µM] | EC50 [10] [µM] | EC50 [11] [µg/mL] | EC50 [12] [µg/mL] | melting point [°C] | EC50 [13] [µg/mL] | CC50 [14] [µg/mL] | EC50 [15] [µg/mL] | also measured
1 | Nc1ncnc2c1ncn2C[C@H](O)CO [(S)-DHPA] | – | – | – | – | – | – | – | – | – | – | – | – | – | – | – | – | EC50 [1]: > 250 µM; EC50 [2]: > 250 µM; EC50 [3]: > 250 µM
2 | O=c1[nH]c(=O)n([C@H]2C[C@H](O)[C@@H](CO)O2)cc1/C=C/Br [Brivudin] | 0.016 | > 250 | > 250 | 2 | > 250 | 10 | 50 | > 250 | > 250 | > 250 | – | – | – | – | – | – | –
3 | Cc1cc(C)nc(NCc2c(C)c(CNc3cc(C)cc(C)n3)c(C)c(CNc3cc(C)cc(C)n3)c2C)c1 [Compound 3a, 1,3,5-Tris[(4,6-dimethyl-pyridin-2-yl)aminomethyl]-2,4,6-trimethyl-benzene] | – | – | – | – | – | – | – | – | – | – | > 0.8 | 1.3 ± 0.2 (≈ 2.49 µM) | 193 to 195 | > 0.8 | 2.63 ± 0.08 (≈ 5.03 µM) | 0.8 ± 0.6 (≈ 1.53 µM) | –
4 | CCc1c(CNc2cc(C)cc(C)n2)c(CC)c(CNc2cc(C)cc(C)n2)c(CC)c1CNc1cc(C)cc(C)n1 [Compound 3b, 1,3,5-Tris[(4,6-dimethyl-pyridin-2-yl)aminomethyl]-2,4,6-triethyl-benzene] | – | – | – | – | – | – | – | – | – | – | > 0.8 | 8.6 ± 4.9 (≈ 15.2 µM) | 183 to 185 | > 0.8 | 2.87 ± 0.23 (≈ 5.08 µM) | 1.1 ± 0.6 (≈ 1.95 µM) | –
5 | NC(=O)c1ncn([C@@H]2O[C@H](CO)[C@@H](O)[C@H]2O)n1 [Ribavirin] | 50 | 250 | 150 | 150 | 150 | 150 | 150 | 250 | > 250 | > 250 | – | – | – | – | – | – | EC50 ([16]; H1N1, MTS, read-out: EC50 Influenza A H1N1 subtype MTS): 9 µM; EC50 ([16]; H1N1, visual CPE, read-out: EC50 Influenza A H1N1 subtype visual CPE score): 8.9 µM; EC50 ([17]; H3N2, MTS, read-out: EC50 Influenza A H3N2 subtype MTS): 8.9 µM; EC50 ([17]; H3N2, visual CPE, read-out: EC50 Influenza A H3N2 subtype visual CPE score): 8.9 µM
